Where “and” joins values, the source holds several entries; their conditions need not be identical. Identical values can stand only once. Like-named read-outs stand apart in the source and are kept apart here.
Legend:
human IL-4 promoter = assay: IL-4 Luciferase assay in Jurkat cells (6.7-IL-4 Luc); assay type: cell-based; settings: Jurkat cell line; concentration not given
human IL-13 promoter = assay: IL-13 Luc assay in Jurkat cells (2.1IL-13 Luc); assay type: cell-based; settings: Jurkat cell line; concentration not given; 480 min
IL-13 = assay: Human primary Th2 cells, anti-CD3/anti-CD28 activated, IL-13 ELISA; assay type: cell-based
Method: (§1) Briefly, CD4^+CD45RA^+ T cells, isolated from donor peripheral blood mononuclear cells of healthy donors, are educated in the presence of anti-CD3/CD28 antibodies and various growth factors to obtain either a Thl-like or Th2-like phenotypes as determined by the known cytokine profiles of these two cell types.
(§2) Peripheral blood mononuclear cells (PBMC) are prepared from human blood by Ficoll-Hypacque (Pharmacia). The cells are washed two times in Hanks balanced salt solution (HBSS) and counted.
(§3) Naive T cells (CD4^+/CD45RA ) are prepared by negative selection method using following antibodies and Dynabeads: anti-CD8, anti-HLA-DR, (where HLA means human leucocyte antigen) anti-CD14, anti-CD16, anti-CD19, anti-CD45RO antibodies (all from R&D Systems, 1-2 µg/ml) are added to the cells, and the cells are kept on ice for 30 min. The cells are washed two times in HBSS, and goat anti- mouse Ig-beads, (bead:target ratio, 5:1) are added. The cells and beads are slowly rotated at 4°C for 20 min. (following the protocol supplied from Dynal). The supernatant is removed and fresh goat anti-mouse Ig-beads are added to the supernatant, which is slowly rotated at 4°C for 20 min. The cells are counted and phenotypically characterized by flow cytometric analysis.
(§4) CD4^+/CD45RA^+ cells at a density of 10^6/ml in RPMI, is prepared and added to RPMI medium containing 10% Hyclone serum/ glutamine and 1-2 µg/ml anti-CD28 Ab. The cells are split in two aliquots. For Th1 cells: anti-IL-4 Ab (1-2 µg/ml), IFN-γ (1 µg/ml, or 5000 units/ml) are added to the wells. For Th2 cells: IL-4 (100-200 ng/ml), anti-IFN-γ neutralizing Ab (1-2 µg/ml), anti-IL-12 neutralizing Ab (1-2 µg/ml) are added into the wells. […] The cells are transferred to fresh wells and grown in 200 units/ml IL-2 for 2 weeks by feeding them every other day with IL-2 containing medium and splitting the cultures 1:2 or 1:3 as needed. The degree of polarization is determined by intracellular staining of cells with anti-IFN-γ and anti-IL-4 antibodies from Pharmingen, and using flow cytometry from Becton Dickinson (BD), according to manufacturers description. The cells are stimulated with PHA and alloantigens at day 14 and 28 as described below. Eight days after the second allostimulation the cells can be used for compound screening or frozen for future use. For compound testing, large quantities of Th1 and Th2 cells derived from a given donor (NYTh1 and NYTh2) were expanded and frozen as aliquots in liquid nitrogen. The cells are thawed and cultured as and when needed. The thawed cells are stimulated with alloantigen/PHA combination. The cells are used for compound screening after 8-10 days in culture.
(§5) Re-stimulation by allogeneic cells: Human PBMCs, to be used as alloantigens, are isolated from freshly drawn blood by Ficoll separation. […] Cells are counted and diluted to a final concentration of 2 x 10^6/ml in medium containing 10 µg/ml PHA and 200 units/ml IL-2.
(§6) Ninetysix well Falcon tissue culture plates (Fisher Scientific) are coated with 100 microliters per well of 10 µg/ml anti-CD3 (PharMingen) antibody in phosphate buffered saline (PBS) and stored at 4°C one day before the experiment.
(§7) On the day of assay, anti-CD3 antibody coated plates are washed with PBS once to remove all soluble anti-CD3 antibody. […] All compounds and controls are assayed in triplicates.

[1] = Human primary Th2 cells, proliferation (viability, MTS assay); assay type: cell-based; settings: human, th2 cells, MTS, read-out: Proliferation (% control) mean
Method: as §1, §2, §3, §4, §5, §6, §7

Human Th2 cells = assay: as above; assay type: cell-based; settings: Human primary Th2 cells; combined data from 10 different experiments; read-out: Prol. IC50
Method: as §1, §2, §3, §4, §5, §6, §7

IL-4 mRNA = assay: Human Th2 IL-4 transcriptional assay (Taqman, GAPDH normalised); assay type: cell-based; settings: 18 hours, stimulated CD3/CD28 = 100%
Method: RNAs were isolated from the harvested cells and analyzed for IL-4 message by Taqman. GAPDH message was used as an internal standard for normalization. The percent activity was calculated by treating the values from not drug treated, anti-CD3 and anti-CD28 stimulated Th2 cells as 100%. […] In the second experiment IL-4 protein levels were also determined by standard ELISA in culture supernatants as described earlier. […]

IgG2a Anti-DNP Antibody = assay: In vivo model of humoral immunity in mice (DNP-KLH), IgG2a anti-DNP antibody
Method: (§8) Female Balb/c mice, each weighing approximately 20 to 25 grams each, aged 5 to 8 weeks are used. Each experiment uses 30 mice.
(§9) The antigen for immunization is 2,4-dinitrophenyl (DNP) or 2,4,6-trinitrophenyl (TNP) conjugated to keyhole limpet haemocyanin (KLH). The antigen (100 µg/mouse) is adsorbed to an adjuvant (colloidal aluminum hydroxide) and given i.p. to animal in a total volume of 0.2-0.3 ml.
(§10) Animals are randomly divided into 5 groups of 6 mice each. Group 1 is a positive control group, Groups 2, 3, and 4 are test compound groups, and Group 5 is a vehicle control group. Compounds may be given by i.n., i.p., p.o., s.c., i.m. or i.v. administration. […] On day 8 after the immunization, mice are bled by cardiac puncture under anesthesia (isoflurane), and the serum samples are stored at -20°C until required for antibody analysis. The anesthetized animals are euthanized with overdosage of sodium pentobarbital at the end of experiment. Statistical analysis of the data are performed using ANOVA.
(§11) Mice are immunized with a hapten carrier conjugate, DNP-KLH, and anti-DNP antibody levels are determined in a isotype specific manner as described above. […]

IgG1 Anti-DNP Antibody = assay: In vivo model of humoral immunity in mice (DNP-KLH), IgG1 anti-DNP antibody
Method: as §8, §9, §10, §11

[2] = individual animals 1-6, dose not stated

In the case of `O=C(O)c1[nH]c2ccccc2c1Nc1ccncc1` [Example 28, 3-(4-Pyridinylamino)-1H-indole-2-carboxylic acid], the “6.7-IL-4 Luc (% of control)” value (human IL-4 promoter) is reported as 62 ± 29 % of control, the “2.1-IL-13 - Luc (% of control)” value (human IL-13 promoter) is reported as 50 ± 12 % of control and the activity at 0.01 µM (IL-13; Homo sapiens, 0.01 µM, 48 hr, read-out: IL-13 (% control) mean) is reported as 91%. It also gave an activity at 0.03 µM (IL-13; Homo sapiens, 0.03 µM, 48 hr, read-out: IL-13 (% control) mean) of 86.4%, an activity at 0.1 µM (IL-13; Homo sapiens, 0.1 µM, 48 hr, read-out: IL-13 (% control) mean) of 82.3% and an activity at 0.3 µM (IL-13; Homo sapiens, 0.3 µM, 48 hr, read-out: IL-13 (% control) mean) of 80.6%. The activity at 1 µM (IL-13; Homo sapiens, 1 µM, 48 hr, read-out: IL-13 (% control) mean) was 75.2%, the activity at 3 µM (IL-13; Homo sapiens, 3 µM, 48 hr, read-out: IL-13 (% control) mean) was 73.4% and the activity at 10 µM (IL-13; Homo sapiens, 10 µM, 48 hr, read-out: IL-13 (% control) mean) was 68.4%. For the same compound, the IC50 (IL-13; Human primary Th2 cells, combined data from 10 different experiments) was ~10 µM, the viability at 0.01 µM ([1]; 0.01 µM) was 89.5% and the viability at 0.03 µM ([1]; 0.03 µM) was 85%. It also gave a viability at 0.1 µM ([1]; 0.1 µM) of 86.7%, a viability at 0.3 µM ([1]; 0.3 µM) of 80.6% and a viability at 1 µM ([1]; 1 µM) of 77.2%. For the same compound, the viability at 3 µM ([1]; 3 µM) was 72%, the viability at 10 µM ([1]; 10 µM) was 71.5% and the IC50 (Human Th2 cells) was > 10 µM. For the same compound, the mrna remaining at 10 µM (IL-4 mRNA; read-out: RNA Exp #1 % activity) was 44%, the mrna remaining at 10 µM (IL-4 mRNA; read-out: RNA Exp #2 % activity) was 45% and the “IgG2a Anti-DNP Antibody Titer” value (IgG2a Anti-DNP Antibody; [2]) was 30.59 and 38.60 and 14.09 and 17.45 and 30.21 and 27.98. The “IgG2a Anti-DNP Antibody Titer Mean+/-SE” value (IgG2a Anti-DNP Antibody; vehicle 30.47 +/-2.37, dose not stated) was 26.49 +/-3.72, the “IgG2a Anti-DNP Antibody Titer Inhibition” value (IgG2a Anti-DNP Antibody; versus vehicle) was 13% and the “IgG1 Anti-DNP Antibody Titer” value (IgG1 Anti-DNP Antibody; [2]) was 72.42 and 185.22 and 19.83 and 40.19 and 83.11 and 37.83. For the same compound, the “IgG1 Anti-DNP Antibody Titer Mean+/-SE” value (IgG1 Anti-DNP Antibody; vehicle 167.69 +/-18.19, dose not stated) was 73.10 +/-24.38 and the “IgG1 Anti-DNP Antibody Titer Inhibition” value (IgG1 Anti-DNP Antibody; versus vehicle) was 56.5%.

Source: patent EP1501797B1, “3-(SUBSTITUTED AMINO)-1H-INDOLE-2-CARBOXYLIC ACID ESTER AND 3-(SUBSTITUTED AMINO)-BENZO[B]THIOPHENE-2-CARBOXYLIC ACID ESTER DERIVATIVES AS INTERLEUKIN-4 GENE EXPRESSION INHIBITORS” (Aventis Pharmaceuticals Inc., priority 2002, dated 2003)
